Test results published in ChEMBL document CHEMBL3045535, “Evaluation of lufenuron as a chemosterilant against fruit flies of the genus Anastrepha (Diptera: Tephritidae)” (2010).
Activity calls are given as the source filed them. No cut-off for these calls is given here.

Tests used:
Anastrepha obliqua [1] = experiment: Reduction of fertility in 7 days old adult of Anastrepha obliqua assessed as reduction of egg hatching at 30 mg/g treated with diet measured after 9 days oviposition; format: functional; set-up: scale not given: the % may be the effect or the level left
Anastrepha obliqua [2] = experiment: Effect on fecundity in 7 days old adult male of Anastrepha obliqua at 30 mg/g treated with diet after 24 hr in presence of untreated adult female of Anastrepha obliqua; format: functional, organism-based
Anastrepha serpentina [3] = experiment: Reduction of fertility in 7 days old adult of Anastrepha serpentina assessed as reduction of egg hatching at 10 mg/g treated with diet measured after 5 days oviposition; format: functional; set-up: scale not given: the % may be the effect or the level left
Anastrepha striata [4] = experiment: Reduction of fertility in 7 days old adult of Anastrepha striata assessed as reduction of egg hatching at 0.1 mg/g treated with diet measured after 11 days oviposition; format: functional; set-up: scale not given: the % may be the effect or the level left
Anastrepha obliqua [5] = experiment: Reduction of fertility in 7 days old adult of Anastrepha obliqua assessed as reduction of egg hatching at 30 mg/g treated with diet measured after 11 days oviposition; format: functional; set-up: scale not given: the % may be the effect or the level left
Anastrepha obliqua [6] = experiment: Reduction of fertility in 7 days old adult of Anastrepha obliqua assessed as reduction of egg hatching at 5 mg/g treated with diet measured after 1 day oviposition; format: functional; set-up: scale not given: the % may be the effect or the level left
Anastrepha serpentina [7] = experiment: Reduction of fertility in 7 days old adult of Anastrepha serpentina assessed as reduction of egg hatching at 30 mg/g treated with diet measured after 1 day oviposition; format: functional; set-up: scale not given: the % may be the effect or the level left
Anastrepha ludens [8] = experiment: Reduction of fertility in 7 days old adult of Anastrepha ludens assessed as reduction of egg hatching at 10 mg/g treated with diet measured after 7 days oviposition; format: functional; set-up: scale not given: the % may be the effect or the level left
Anastrepha ludens [9] = experiment: Reduction of fertility in 7 days old adult of Anastrepha ludens assessed as reduction of egg hatching at 1 mg/g treated with diet measured after 1 day oviposition; format: functional; set-up: scale not given: the % may be the effect or the level left
Anastrepha obliqua [10] = experiment: Reduction of fertility in 7 days old adult of Anastrepha obliqua assessed as reduction of egg hatching at 0.5 mg/g treated with diet measured after 7 days oviposition; format: functional; set-up: scale not given: the % may be the effect or the level left
Anastrepha ludens [11] = experiment: Effect on fertility in 7 days old adult female of Anastrepha ludens at 30 mg/g treated with diet after 24 hr in presence of untreated adult male of Anastrepha ludens; format: functional, organism-based
Anastrepha ludens [12] = experiment: Reduction of fertility in 7 days old adult of Anastrepha ludens assessed as reduction of egg hatching at 0.1 mg/g treated with diet measured after 1 day oviposition; format: functional; set-up: scale not given: the % may be the effect or the level left
Anastrepha ludens [13] = experiment: Reduction of fertility in 7 days old adult of Anastrepha ludens assessed as reduction of egg hatching at 1 mg/g treated with diet measured after 3 days oviposition; format: functional; set-up: scale not given: the % may be the effect or the level left
Anastrepha ludens [14] = experiment: Reduction of fertility in 7 days old adult of Anastrepha ludens assessed as reduction of egg hatching at 10 mg/g treated with diet measured after 3 days oviposition; format: functional; set-up: scale not given: the % may be the effect or the level left
Anastrepha obliqua [15] = experiment: Reduction of fertility in 7 days old adult of Anastrepha obliqua assessed as reduction of egg hatching at 0.5 mg/g treated with diet measured after 9 days oviposition; format: functional; set-up: scale not given: the % may be the effect or the level left
Anastrepha obliqua [16] = experiment: Reduction of fertility in 7 days old adult of Anastrepha obliqua assessed as reduction of egg hatching at 1 mg/g treated with diet measured after 7 days oviposition; format: functional; set-up: scale not given: the % may be the effect or the level left
Anastrepha obliqua [17] = experiment: Reduction of fertility in 7 days old adult of Anastrepha obliqua assessed as reduction of egg hatching at 30 mg/g treated with diet measured after 5 days oviposition; format: functional; set-up: scale not given: the % may be the effect or the level left
Anastrepha serpentina [18] = experiment: Reduction of fertility in 7 days old adult of Anastrepha serpentina assessed as reduction of egg hatching at 5 mg/g treated with diet measured after 11 days oviposition; format: functional; set-up: scale not given: the % may be the effect or the level left
Anastrepha striata [19] = experiment: Reduction of fertility in 7 days old adult of Anastrepha striata assessed as reduction of egg hatching at 1 mg/g treated with diet measured after 11 days oviposition; format: functional; set-up: scale not given: the % may be the effect or the level left
Anastrepha ludens [20] = experiment: Reduction of fertility in 7 days old adult of Anastrepha ludens assessed as reduction of egg hatching at 10 mg/g treated with diet measured after 1 day oviposition; format: functional; set-up: scale not given: the % may be the effect or the level left
Anastrepha ludens [21] = experiment: Effect on fecundity in 7 days old adult of Anastrepha ludens at 0.1 to 30 mg/g treated with diet after 24 hr; format: functional, organism-based
Anastrepha serpentina [22] = experiment: Reduction of fertility in 7 days old adult of Anastrepha serpentina assessed as reduction of egg hatching at 30 mg/g treated with diet measured after 5 days oviposition; format: functional; set-up: scale not given: the % may be the effect or the level left
Anastrepha obliqua [23] = experiment: Reduction of fertility in 7 days old adult of Anastrepha obliqua assessed as reduction of egg hatching at 0.1 mg/g treated with diet measured after 7 days oviposition; format: functional; set-up: scale not given: the % may be the effect or the level left
Anastrepha obliqua [24] = experiment: Reduction of fertility in 7 days old adult of Anastrepha obliqua assessed as reduction of egg hatching at 30 mg/g treated with diet measured after 3 days oviposition; format: functional; set-up: scale not given: the % may be the effect or the level left
Anastrepha striata [25] = experiment: Reduction of fertility in 7 days old adult of Anastrepha striata assessed as reduction of egg hatching at 30 mg/g treated with diet measured after 5 days oviposition; format: functional; set-up: scale not given: the % may be the effect or the level left
Anastrepha ludens [26] = experiment: Reduction of fertility in 7 days old adult of Anastrepha ludens assessed as reduction of egg hatching at 0.5 mg/g treated with diet measured after 3 days oviposition; format: functional; set-up: scale not given: the % may be the effect or the level left
Anastrepha serpentina [27] = experiment: Reduction of fertility in 7 days old adult of Anastrepha serpentina assessed as reduction of egg hatching at 5 mg/g treated with diet measured after 3 days oviposition; format: functional; set-up: scale not given: the % may be the effect or the level left
Anastrepha obliqua [28] = experiment: Reduction of fertility in 7 days old adult of Anastrepha obliqua assessed as reduction of egg hatching at 30 mg/g treated with diet measured after 1 day oviposition; format: functional; set-up: scale not given: the % may be the effect or the level left
Anastrepha ludens [29] = experiment: Reduction of fertility in 7 days old adult of Anastrepha ludens assessed as reduction of egg hatching at 30 mg/g treated with diet measured after 11 days oviposition; format: functional; set-up: scale not given: the % may be the effect or the level left
Anastrepha obliqua [30] = experiment: Reduction of fertility in 7 days old adult of Anastrepha obliqua assessed as reduction of egg hatching at 5 mg/g treated with diet measured after 3 days oviposition; format: functional; set-up: scale not given: the % may be the effect or the level left
Anastrepha serpentina [31] = experiment: Reduction of fertility in 7 days old adult of Anastrepha serpentina assessed as reduction of egg hatching at 0.1 mg/g treated with diet measured after 5 days oviposition; format: functional; set-up: scale not given: the % may be the effect or the level left
Anastrepha serpentina [32] = experiment: Reduction of fertility in 7 days old adult of Anastrepha serpentina assessed as reduction of egg hatching at 0.1 mg/g treated with diet measured after 1 day oviposition; format: functional; set-up: scale not given: the % may be the effect or the level left
Anastrepha striata [33] = experiment: Effect on fecundity in 7 days old adult male of Anastrepha striata at 30 mg/g treated with diet after 24 hr in presence of untreated adult female of Anastrepha striata; format: functional, organism-based
Anastrepha obliqua [34] = experiment: Reduction of fertility in 7 days old adult of Anastrepha obliqua assessed as reduction of egg hatching at 0.5 mg/g treated with diet measured after 1 day oviposition; format: functional; set-up: scale not given: the % may be the effect or the level left
Anastrepha obliqua [35] = experiment: Reduction of fertility in 7 days old adult of Anastrepha obliqua assessed as reduction of egg hatching at 10 mg/g treated with diet measured after 1 day oviposition; format: functional; set-up: scale not given: the % may be the effect or the level left
Anastrepha obliqua [36] = experiment: Reduction of fertility in 7 days old adult of Anastrepha obliqua assessed as reduction of egg hatching at 0.1 mg/g treated with diet measured after 9 days oviposition; format: functional; set-up: scale not given: the % may be the effect or the level left
Anastrepha obliqua [37] = experiment: Reduction of fertility in 7 days old adult of Anastrepha obliqua assessed as reduction of egg hatching at 5 mg/g treated with diet measured after 9 days oviposition; format: functional; set-up: scale not given: the % may be the effect or the level left
Anastrepha obliqua [38] = experiment: Reduction of fertility in 7 days old adult of Anastrepha obliqua assessed as reduction of egg hatching at 10 mg/g treated with diet measured after 11 days oviposition; format: functional; set-up: scale not given: the % may be the effect or the level left
Anastrepha ludens [39] = experiment: Reduction of fertility in 7 days old adult of Anastrepha ludens assessed as reduction of egg hatching at 10 mg/g treated with diet measured after 9 days oviposition; format: functional; set-up: scale not given: the % may be the effect or the level left
Anastrepha ludens [40] = experiment: Reduction of fertility in 7 days old adult of Anastrepha ludens assessed as reduction of egg hatching at 0.1 mg/g treated with diet measured after 11 days oviposition; format: functional; set-up: scale not given: the % may be the effect or the level left
Anastrepha serpentina [41] = experiment: Reduction of fertility in 7 days old adult of Anastrepha serpentina assessed as reduction of egg hatching at 0.5 mg/g treated with diet measured after 11 days oviposition; format: functional; set-up: scale not given: the % may be the effect or the level left

In the case of `O=C(NC(=O)c1c(F)cccc1F)Nc1cc(Cl)c(OC(F)(F)C(F)C(F)(F)F)cc1Cl` (racemic) [LUFENURON], the Activity (Anastrepha obliqua [1]) is reported as 1.3%, the Activity (Anastrepha obliqua [2]) is reported as “inactive” and the Activity (Anastrepha serpentina [3]) is reported as 54.7%. The Activity (Anastrepha striata [4]) was 72.7%, the Activity (Anastrepha obliqua [5]) was 2% and the Activity (Anastrepha obliqua [6]) was 1.3%. The Activity (Anastrepha serpentina [7]) was 49.2%, the Activity (Anastrepha ludens [8]) was 13.3% and the Activity (Anastrepha ludens [9]) was 8%. The Activity (Anastrepha obliqua [10]) was 0.7%, the Activity (Anastrepha ludens [11]) was “inactive” and the Activity (Anastrepha ludens [12]) was 26.7%. For the same compound, the Activity (Anastrepha ludens [13]) was 9.3%, the Activity (Anastrepha ludens [14]) was 4.7% and the Activity (Anastrepha obliqua [15]) was 4.7%. For the same compound, the Activity (Anastrepha obliqua [16]) was 0.7%, the Activity (Anastrepha obliqua [17]) was 0% and the Activity (Anastrepha serpentina [18]) was 86.7%. The Activity (Anastrepha striata [19]) was 8.7%, the Activity (Anastrepha ludens [20]) was 6% and the Activity (Anastrepha ludens [21]) was “inactive”. For the same compound, the Activity (Anastrepha serpentina [22]) was 78.4%, the Activity (Anastrepha obliqua [23]) was 8% and the Activity (Anastrepha obliqua [24]) was 0%. For the same compound, the Activity (Anastrepha striata [25]) was 4%, the Activity (Anastrepha ludens [26]) was 12% and the Activity (Anastrepha serpentina [27]) was 58.9%. It also gave an Activity (Anastrepha obliqua [28]) of 0%, an Activity (Anastrepha ludens [29]) of 15.3% and an Activity (Anastrepha obliqua [30]) of 2.7%. For the same compound, the Activity (Anastrepha serpentina [31]) was 74.6%, the Activity (Anastrepha serpentina [32]) was 98.9% and the Activity (Anastrepha striata [33]) was “inactive”. It also gave an Activity (Anastrepha obliqua [34]) of 8.7%, an Activity (Anastrepha obliqua [35]) of 0% and an Activity (Anastrepha obliqua [36]) of 6%. It also gave an Activity (Anastrepha obliqua [37]) of 0.7%, an Activity (Anastrepha obliqua [38]) of 0.7% and an Activity (Anastrepha ludens [39]) of 14.7%. It also gave an Activity (Anastrepha ludens [40]) of 66.7% and an Activity (Anastrepha serpentina [41]) of 86%.
